Reference: the NIST ThermoML archive (doi:10.1021/je700260f)
± gives the expanded uncertainty stated by the source.

Settings: 313.15 K, Liquid, Vibrating tube method

FC(C(F)(F)F)C(F)(F)F [1,1,1,2,3,3,3-heptafluoropropane]
mass density (6459 kPa): 1373.4 ± 1.5 kg/m3
mass density (6490 kPa): 1373.6 ± 1.5 kg/m3
mass density (6518 kPa): 1373.8 ± 1.5 kg/m3
mass density (6545 kPa): 1374 ± 1.5 kg/m3
mass density (6574 kPa): 1374.3 ± 1.5 kg/m3
mass density (6602 kPa): 1374.5 ± 1.5 kg/m3
mass density (6638 kPa): 1374.7 ± 1.5 kg/m3
mass density (6666 kPa): 1374.8 ± 1.5 kg/m3
mass density (6694 kPa): 1375.2 ± 1.5 kg/m3
mass density (6718 kPa): 1375.4 ± 1.5 kg/m3
mass density (6751 kPa): 1375.5 ± 1.5 kg/m3
mass density (6776 kPa): 1375.7 ± 1.5 kg/m3
mass density (6806 kPa): 1376 ± 1.5 kg/m3
mass density (6835 kPa): 1376 ± 1.5 kg/m3
mass density (6863 kPa): 1376.4 ± 1.5 kg/m3
mass density (6883 kPa): 1376.7 ± 1.5 kg/m3
mass density (6908 kPa): 1376.8 ± 1.5 kg/m3
mass density (6938 kPa): 1376.9 ± 1.5 kg/m3
mass density (6976 kPa): 1377.1 ± 1.5 kg/m3
mass density (7006 kPa): 1377.4 ± 1.5 kg/m3
mass density (7045 kPa): 1377.7 ± 1.5 kg/m3
mass density (7079 kPa): 1377.9 ± 1.5 kg/m3
mass density (7109 kPa): 1378.2 ± 1.5 kg/m3
mass density (7139 kPa): 1378.3 ± 1.5 kg/m3
mass density (7169 kPa): 1378.7 ± 1.5 kg/m3
mass density (7198 kPa): 1378.8 ± 1.5 kg/m3
mass density (7228 kPa): 1379 ± 1.5 kg/m3
mass density (7266 kPa): 1379.4 ± 1.5 kg/m3
mass density (7292 kPa): 1379.5 ± 1.5 kg/m3
mass density (7326 kPa): 1379.7 ± 1.5 kg/m3
mass density (7348 kPa): 1379.9 ± 1.5 kg/m3
mass density (7382 kPa): 1380.1 ± 1.5 kg/m3
mass density (7408 kPa): 1380.3 ± 1.5 kg/m3
mass density (7438 kPa): 1380.5 ± 1.5 kg/m3
mass density (7465 kPa): 1380.7 ± 1.5 kg/m3
mass density (7501 kPa): 1380.9 ± 1.5 kg/m3
mass density (7527 kPa): 1381.2 ± 1.5 kg/m3
mass density (7556 kPa): 1381.4 ± 1.5 kg/m3
mass density (7582 kPa): 1381.6 ± 1.5 kg/m3
mass density (7612 kPa): 1381.8 ± 1.5 kg/m3
mass density (7638 kPa): 1382.1 ± 1.5 kg/m3
mass density (7677 kPa): 1382.3 ± 1.5 kg/m3
mass density (7703 kPa): 1382.3 ± 1.5 kg/m3
mass density (7742 kPa): 1382.8 ± 1.5 kg/m3
mass density (7768 kPa): 1382.8 ± 1.5 kg/m3
mass density (7798 kPa): 1383 ± 1.5 kg/m3
mass density (7824 kPa): 1383.2 ± 1.5 kg/m3
mass density (7851 kPa): 1383.5 ± 1.5 kg/m3
mass density (7874 kPa): 1383.6 ± 1.5 kg/m3
mass density (7910 kPa): 1383.8 ± 1.5 kg/m3
mass density (7931 kPa): 1383.9 ± 1.5 kg/m3
mass density (7958 kPa): 1384.2 ± 1.5 kg/m3
mass density (7993 kPa): 1384.3 ± 1.5 kg/m3
mass density (8020 kPa): 1384.6 ± 1.5 kg/m3
mass density (8059 kPa): 1384.9 ± 1.5 kg/m3
mass density (8094 kPa): 1385 ± 1.5 kg/m3
mass density (8129 kPa): 1385.4 ± 1.5 kg/m3
mass density (8156 kPa): 1385.5 ± 1.5 kg/m3
mass density (8196 kPa): 1385.9 ± 1.5 kg/m3
mass density (8223 kPa): 1386 ± 1.5 kg/m3
mass density (8263 kPa): 1386.4 ± 1.5 kg/m3
mass density (8295 kPa): 1386.4 ± 1.5 kg/m3
mass density (8331 kPa): 1386.7 ± 1.5 kg/m3
mass density (8367 kPa): 1387 ± 1.5 kg/m3
mass density (8399 kPa): 1387.1 ± 1.5 kg/m3
mass density (8430 kPa): 1387.3 ± 1.5 kg/m3
mass density (8461 kPa): 1387.6 ± 1.5 kg/m3
mass density (8497 kPa): 1387.9 ± 1.5 kg/m3
mass density (8523 kPa): 1388.2 ± 1.5 kg/m3
mass density (8564 kPa): 1388.3 ± 1.5 kg/m3
mass density (8622 kPa): 1388.8 ± 1.5 kg/m3
mass density (8654 kPa): 1388.8 ± 1.5 kg/m3
mass density (8689 kPa): 1389.1 ± 1.5 kg/m3
mass density (8720 kPa): 1389.4 ± 1.5 kg/m3
mass density (8766 kPa): 1389.7 ± 1.5 kg/m3
mass density (8798 kPa): 1390 ± 1.5 kg/m3
mass density (8834 kPa): 1390.1 ± 1.5 kg/m3
mass density (8861 kPa): 1390.3 ± 1.5 kg/m3
mass density (8887 kPa): 1390.6 ± 1.5 kg/m3
mass density (8915 kPa): 1390.6 ± 1.5 kg/m3
mass density (8943 kPa): 1390.9 ± 1.5 kg/m3
mass density (8979 kPa): 1391.1 ± 1.5 kg/m3
mass density (9019 kPa): 1391.5 ± 1.5 kg/m3
mass density (9044 kPa): 1391.5 ± 1.5 kg/m3
mass density (9072 kPa): 1391.7 ± 1.5 kg/m3
mass density (9097 kPa): 1391.9 ± 1.5 kg/m3
mass density (9130 kPa): 1392.1 ± 1.5 kg/m3
mass density (9160 kPa): 1392.2 ± 1.5 kg/m3
mass density (9179 kPa): 1392.3 ± 1.5 kg/m3
mass density (9214 kPa): 1392.6 ± 1.5 kg/m3
mass density (9236 kPa): 1392.7 ± 1.5 kg/m3
mass density (9263 kPa): 1393 ± 1.5 kg/m3
mass density (9286 kPa): 1393.1 ± 1.5 kg/m3
mass density (9320 kPa): 1393.4 ± 1.5 kg/m3
mass density (9340 kPa): 1393.4 ± 1.5 kg/m3
mass density (9367 kPa): 1393.6 ± 1.5 kg/m3
mass density (9393 kPa): 1393.8 ± 1.5 kg/m3
mass density (9419 kPa): 1394 ± 1.5 kg/m3
mass density (9443 kPa): 1394 ± 1.5 kg/m3
mass density (9465 kPa): 1394.3 ± 1.5 kg/m3
mass density (9495 kPa): 1394.3 ± 1.5 kg/m3
mass density (9518 kPa): 1394.6 ± 1.5 kg/m3
mass density (9544 kPa): 1394.8 ± 1.5 kg/m3
mass density (9564 kPa): 1394.9 ± 1.5 kg/m3
mass density (9591 kPa): 1395 ± 1.5 kg/m3
mass density (9619 kPa): 1395.3 ± 1.5 kg/m3
mass density (9823 kPa): 1396.6 ± 1.5 kg/m3
mass density (9856 kPa): 1396.8 ± 1.5 kg/m3
mass density (9892 kPa): 1397 ± 1.5 kg/m3
mass density (9921 kPa): 1397.3 ± 1.5 kg/m3
mass density (9953 kPa): 1397.4 ± 1.5 kg/m3
mass density (9987 kPa): 1397.4 ± 1.5 kg/m3
mass density (10010 kPa): 1397.7 ± 1.5 kg/m3
mass density (10062 kPa): 1398.1 ± 1.5 kg/m3
mass density (10094 kPa): 1398.2 ± 1.5 kg/m3
mass density (10123 kPa): 1398.4 ± 1.5 kg/m3
mass density (10151 kPa): 1398.5 ± 1.5 kg/m3
mass density (10183 kPa): 1398.9 ± 1.5 kg/m3
mass density (10211 kPa): 1399.1 ± 1.5 kg/m3
mass density (10247 kPa): 1399.1 ± 1.5 kg/m3
mass density (10272 kPa): 1399.3 ± 1.5 kg/m3
mass density (10301 kPa): 1399.5 ± 1.5 kg/m3
mass density (10332 kPa): 1399.8 ± 1.5 kg/m3
mass density (10361 kPa): 1400 ± 1.5 kg/m3
mass density (10389 kPa): 1400 ± 1.5 kg/m3
mass density (10421 kPa): 1400.3 ± 1.5 kg/m3
mass density (10450 kPa): 1400.4 ± 1.5 kg/m3
mass density (10482 kPa): 1400.8 ± 1.5 kg/m3
mass density (10519 kPa): 1401 ± 1.5 kg/m3
mass density (10547 kPa): 1401.1 ± 1.5 kg/m3
mass density (10580 kPa): 1401.3 ± 1.5 kg/m3
mass density (10609 kPa): 1401.5 ± 1.5 kg/m3
mass density (10646 kPa): 1401.7 ± 1.5 kg/m3
mass density (10680 kPa): 1401.9 ± 1.5 kg/m3
mass density (10709 kPa): 1402.1 ± 1.5 kg/m3
mass density (10743 kPa): 1402.3 ± 1.5 kg/m3
mass density (10780 kPa): 1402.5 ± 1.5 kg/m3
mass density (10813 kPa): 1402.7 ± 1.5 kg/m3
mass density (10838 kPa): 1402.9 ± 1.5 kg/m3
mass density (10871 kPa): 1403.1 ± 1.5 kg/m3
mass density (10899 kPa): 1403.2 ± 1.5 kg/m3
mass density (10928 kPa): 1403.5 ± 1.5 kg/m3
mass density (10956 kPa): 1403.5 ± 1.5 kg/m3
mass density (10981 kPa): 1403.7 ± 1.5 kg/m3
mass density (11015 kPa): 1404.1 ± 1.5 kg/m3
mass density (11048 kPa): 1404.2 ± 1.5 kg/m3
mass density (11069 kPa): 1404.4 ± 1.5 kg/m3
mass density (11102 kPa): 1404.4 ± 1.5 kg/m3
mass density (11127 kPa): 1404.6 ± 1.5 kg/m3
mass density (11164 kPa): 1404.9 ± 1.5 kg/m3
mass density (11193 kPa): 1405 ± 1.5 kg/m3
mass density (11222 kPa): 1405.3 ± 1.5 kg/m3
mass density (11252 kPa): 1405.4 ± 1.5 kg/m3
mass density (11278 kPa): 1405.5 ± 1.5 kg/m3
mass density (11317 kPa): 1405.7 ± 1.5 kg/m3
mass density (11360 kPa): 1405.9 ± 1.5 kg/m3
mass density (11399 kPa): 1406.3 ± 1.5 kg/m3
mass density (11424 kPa): 1406.4 ± 1.5 kg/m3
mass density (11461 kPa): 1406.5 ± 1.5 kg/m3
mass density (11486 kPa): 1406.8 ± 1.5 kg/m3
mass density (11518 kPa): 1406.9 ± 1.5 kg/m3
mass density (11544 kPa): 1407.2 ± 1.5 kg/m3
mass density (11578 kPa): 1407.4 ± 1.5 kg/m3
mass density (11628 kPa): 1407.6 ± 1.5 kg/m3
mass density (11692 kPa): 1408 ± 1.5 kg/m3
mass density (11726 kPa): 1408.2 ± 1.5 kg/m3
mass density (11751 kPa): 1408.3 ± 1.5 kg/m3
mass density (11788 kPa): 1408.5 ± 1.5 kg/m3
mass density (11818 kPa): 1408.8 ± 1.5 kg/m3
mass density (11860 kPa): 1408.9 ± 1.5 kg/m3
mass density (11889 kPa): 1409.2 ± 1.5 kg/m3
mass density (11927 kPa): 1409.3 ± 1.5 kg/m3
mass density (11969 kPa): 1409.5 ± 1.5 kg/m3
mass density (11998 kPa): 1409.7 ± 1.5 kg/m3
mass density (12023 kPa): 1409.9 ± 1.5 kg/m3
mass density (12048 kPa): 1410.1 ± 1.5 kg/m3
mass density (12069 kPa): 1410.1 ± 1.5 kg/m3
mass density (12099 kPa): 1410.3 ± 1.5 kg/m3
mass density (12128 kPa): 1410.6 ± 1.5 kg/m3
mass density (12165 kPa): 1410.9 ± 1.5 kg/m3
mass density (12206 kPa): 1410.9 ± 1.5 kg/m3
mass density (12231 kPa): 1411.1 ± 1.5 kg/m3
mass density (12265 kPa): 1411.4 ± 1.5 kg/m3
mass density (12294 kPa): 1411.4 ± 1.5 kg/m3
mass density (12323 kPa): 1411.6 ± 1.5 kg/m3
mass density (12344 kPa): 1411.8 ± 1.5 kg/m3
mass density (12373 kPa): 1411.9 ± 1.5 kg/m3
mass density (12407 kPa): 1412.1 ± 1.5 kg/m3
mass density (12448 kPa): 1412.4 ± 1.5 kg/m3
mass density (12477 kPa): 1412.4 ± 1.5 kg/m3
mass density (12510 kPa): 1412.8 ± 1.5 kg/m3
mass density (12532 kPa): 1412.9 ± 1.5 kg/m3
mass density (12565 kPa): 1413.1 ± 1.5 kg/m3
mass density (12616 kPa): 1413.4 ± 1.5 kg/m3
mass density (12650 kPa): 1413.4 ± 1.5 kg/m3
mass density (12689 kPa): 1413.8 ± 1.5 kg/m3
mass density (12723 kPa): 1413.9 ± 1.5 kg/m3
mass density (12749 kPa): 1414.1 ± 1.6 kg/m3
mass density (12786 kPa): 1414.2 ± 1.6 kg/m3
mass density (12813 kPa): 1414.5 ± 1.6 kg/m3
mass density (12852 kPa): 1414.7 ± 1.6 kg/m3
mass density (12888 kPa): 1414.9 ± 1.6 kg/m3
mass density (12924 kPa): 1415.1 ± 1.6 kg/m3
mass density (12959 kPa): 1415.3 ± 1.6 kg/m3
mass density (12986 kPa): 1415.4 ± 1.6 kg/m3
